Data as given in patent US10065990B2, “Cyclic peptide compound, and preparation method, pharmaceutical composition and use thereof” (HANGZHOU GUANYU BIO-MEDICAL CO., LTD, priority 2013, dated 2018).
Read-outs that look alike come from different tables or passages of the source.

Legend:
HDAC7 = biological target: T1, HDAC7 (Homo sapiens, UniProt Q8WUI4); test: HDAC biochemical activity measurement (fluorescent substrate deacetylation);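 note: fluorogenic deacetylation assay using acetyl-lysine substrate at 20 µM, enzyme and compound incubated 30 min at 37 °C, then developer added, fluorescence read at 360/460 nm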; details: HDAC7; 37° C. 30 minutes
T1 sequence (Q8WUI4 1-952): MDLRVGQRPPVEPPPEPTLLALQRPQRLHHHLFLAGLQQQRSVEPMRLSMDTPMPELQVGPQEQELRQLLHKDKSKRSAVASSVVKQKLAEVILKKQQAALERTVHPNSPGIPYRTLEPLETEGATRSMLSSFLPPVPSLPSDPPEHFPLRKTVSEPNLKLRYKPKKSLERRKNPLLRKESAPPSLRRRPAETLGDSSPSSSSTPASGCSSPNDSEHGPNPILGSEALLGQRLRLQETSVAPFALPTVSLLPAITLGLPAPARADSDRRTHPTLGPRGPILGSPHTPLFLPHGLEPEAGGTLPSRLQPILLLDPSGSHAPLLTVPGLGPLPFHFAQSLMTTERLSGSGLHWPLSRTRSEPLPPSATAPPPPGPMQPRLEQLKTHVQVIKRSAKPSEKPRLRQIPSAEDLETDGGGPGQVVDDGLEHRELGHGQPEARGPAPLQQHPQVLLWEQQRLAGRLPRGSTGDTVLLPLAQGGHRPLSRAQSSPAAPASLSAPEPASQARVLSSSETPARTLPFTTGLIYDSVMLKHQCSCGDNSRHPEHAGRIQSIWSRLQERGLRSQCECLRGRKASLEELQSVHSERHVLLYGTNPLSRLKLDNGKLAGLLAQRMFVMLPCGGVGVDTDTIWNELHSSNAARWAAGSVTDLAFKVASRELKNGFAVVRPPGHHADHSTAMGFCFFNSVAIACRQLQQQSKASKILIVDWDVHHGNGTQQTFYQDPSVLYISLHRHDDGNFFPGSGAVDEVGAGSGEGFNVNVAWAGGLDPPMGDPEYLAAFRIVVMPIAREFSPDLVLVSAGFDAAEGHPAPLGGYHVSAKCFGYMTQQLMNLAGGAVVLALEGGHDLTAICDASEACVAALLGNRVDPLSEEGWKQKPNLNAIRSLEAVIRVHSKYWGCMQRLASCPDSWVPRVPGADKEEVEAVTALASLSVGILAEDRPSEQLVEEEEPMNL

[1] = system: K562 (human leukemia cells); test: MTT cancer cell growth inhibition; type: cell-based; details: Homo sapiens, K562, 72 h, MTT, 72 hours incubation, K562 cells; read-out: GI50 K562
Text: (§1) MTT assay principle is yellow MTT can penetrate membrane into the cell, succinic dehydrogenase of the mitochondria in living cells can make exogenous MTT reduction of insoluble in water of blue-violet acicular formazan for crystallization and deposition in the cell, crystallization can be dissolved dimethyl sulfoxide (DMSO) solution, detected its absorbance at 490 nm/570 nm wavelength by enzyme-linked immunosorbent assay, which can reflect the number of cells.
(§2) Using DMEM+10% FBS culture medium or using 1640+10% FBS culture, respectively.
(§3) a) Cells were seeded in 96-well plates with the inoculation of 1500/well, 190 μl/hole, 37° C., 5% of CO2 incubator overnight;
(§4) b) The next day each well was added 10 μl of different drugs. The final concentration of drug was 10^−5˜10^−10M, three parallel holes; 37° C., 5% CO2 culture incubator for 72 hours incubation;
(§5) c) Per well was added 20 μl 5 mg/ml of MTT, 37° C., 5% CO2 culture incubator for 4 hours incubation;
(§6) d) The supernatant was discarded. Each well was added 100 μl of DMSO and oscillation;
(§7) e) 570 nm readings. Calculate cell viability. GI50 calculation based on the results.

[2] = system: MOLT-4 (human acute lymphoblastic leukemia cells); test: MTT cancer cell growth inhibition; type: cell-based; details: Homo sapiens, MOLT-4, 72 h, MTT, 72 hours incubation, read-out: GI50 Mol
Text: as §1, §2, §3, §4, §5, §6, §7

[3] = system: N-87 (human gastric cancer cells); test: MTT cancer cell growth inhibition; type: cell-based; details: Homo sapiens, 72 h, MTT, 72 hours incubation, N-87 cells; read-out: GI50 N-87
Text: as §1, §2, §3, §4, §5, §6, §7

[4] = system: SGC-7901 (human gastric cancer cells); test: MTT cancer cell growth inhibition; type: cell-based; details: Homo sapiens, SGC-7901, 72 h, MTT, 72 hours incubation, SGC-7901 cells; read-out: GI50 SGC-7901
Text: as §1, §2, §3, §4, §5, §6, §7

[5] = system: Huh-7 (human hepatoma cells); test: MTT cancer cell growth inhibition; type: cell-based; details: Homo sapiens, Huh-7, 72 h, MTT, 72 hours incubation, Huh-7 cells; read-out: GI50 Huh-7
Text: as §1, §2, §3, §4, §5, §6, §7

[6] = system: H1975 (non-small cell lung adenocarcinoma); test: MTT cancer cell growth inhibition; type: cell-based; details: Homo sapiens, NCI-H1975, 72 h, MTT, 72 hours incubation, H1975 cells; read-out: GI50 H1975
Text: as §1, §2, §3, §4, §5, §6, §7

[7] = system: A549 (human lung cancer cells); test: MTT cancer cell growth inhibition; type: cell-based; details: Homo sapiens, A549, 72 h, MTT, 72 hours incubation, read-out: GI50 A54
Text: as §1, §2, §3, §4, §5, §6, §7

[8] = system: BGC-823 (human gastric cancer cells); test: MTT cancer cell growth inhibition; type: cell-based; details: Homo sapiens, BGC-823, 72 h, MTT, 72 hours incubation, read-out: GI50 BG
Text: as §1, §2, §3, §4, §5, §6, §7

[9] = system: Hela (human cervical cancer cells); test: MTT cancer cell growth inhibition; type: cell-based; details: Homo sapiens, HeLa, 72 h, MTT, 72 hours incubation, read-out: GI50 Hela
Text: as §1, §2, §3, §4, §5, §6, §7

[10] = system: DU145 (human prostate cancer cells); test: MTT cancer cell growth inhibition; type: cell-based; details: Homo sapiens, DU-145, 72 h, MTT, 72 hours incubation, read-out: GI50 Du1
Text: as §1, §2, §3, §4, §5, §6, §7

[11] = system: PANC-1 (Pac-1, human pancreatic cancer cells); test: MTT cancer cell growth inhibition; type: cell-based; details: Homo sapiens, PANC-1, 72 h, MTT, 72 hours incubation, read-out: GI50 PAN
Text: as §1, §2, §3, §4, §5, §6, §7

[12] = system: U937 (human leukemia cells); test: MTT cancer cell growth inhibition; type: cell-based; details: Homo sapiens, U-937, 72 h, MTT, 72 hours incubation, read-out: GI50 U93
Text: as §1, §2, §3, §4, §5, §6, §7

[13] = system: lncap (prostate cancer cells); test: MTT cancer cell growth inhibition; type: cell-based; details: Homo sapiens, LNCaP, 72 h, MTT, 72 hours incubation, read-out: GI50 lnca
Text: as §1, §2, §3, §4, §5, §6, §7

[14] = system: MDA-MB-231 (breast cancer cells); test: MTT cancer cell growth inhibition; type: cell-based; details: Homo sapiens, MDA-MB-231, 72 h, read-out: GI50 MDA-MB-231, MTT, 72 hours incubation, MDA-MB-231 cells
Text: as §1, §2, §3, §4, §5, §6, §7

[15] = system: HT1080 (human fibrosarcoma cells); test: MTT cancer cell growth inhibition; type: cell-based; details: Homo sapiens, HT-1080, 72 h, MTT, 72 hours incubation, read-out: GI50 HT1
Text: as §1, §2, §3, §4, §5, §6, §7

[16] = system: MCF-7 (human breast cancer cells); test: MTT cancer cell growth inhibition; type: cell-based; details: Homo sapiens, MCF7, 72 h, 72 hours incubation, read-out: GI50 MCF
Text: as §1, §2, §3, §4, §5, §6, §7

[17] = system: KBM5-T315I (human chronic myelogenous leukemia); test: MTT cancer cell growth inhibition; type: cell-based; details: Homo sapiens, 72 h, MTT, 72 hours incubation, KBM5-T315I cells; read-out: GI50 KBM5-T315I
Text: as §1, §2, §3, §4, §5, §6, §7

[18] = system: KBM-5 (human chronic myelogenous leukemia); test: MTT cancer cell growth inhibition; type: cell-based; details: Homo sapiens, KBM5, 72 h, MTT, 72 hours incubation, KBM-5 cells; read-out: GI50 KBM-5
Text: as §1, §2, §3, §4, §5, §6, §7

[19] = system: HCC827 (human non-small cell lung cancer cells); test: MTT cancer cell growth inhibition; type: cell-based; details: Homo sapiens, HCC827, 72 h, MTT, 72 hours incubation, HCC827 cells; read-out: GI50 HCC827
Text: as §1, §2, §3, §4, §5, §6, §7

[20] = system: Bel-7402 (human hepatoma cells); test: MTT cancer cell growth inhibition; type: cell-based; details: Homo sapiens, Bel-7402, 72 h, MTT, 72 hours incubation, Bel-7402 cells; read-out: GI50 Bel-7402
Text: as §1, §2, §3, §4, §5, §6, §7

Compound	IC50 HDAC7 (HDAC7)	GI50 [1]	GI50 [2]	GI50 [3]	GI50 [4]	GI50 [5]	GI50 [6]	GI50 [7]	GI50 [8]	GI50 [9]	GI50 [10]	GI50 [11]	GI50 [12]	GI50 [13]	GI50 [14]	GI50 [15]	GI50 [17]	GI50 [18]	GI50 [19]	GI50 [20]	further results
C/C=C1\NC(=O)c2nccc(n2)CNC(=O)C[C@@H](/C=C/CCS)OC(=O)[C@H](C(C)C)NC1=O [Compound 143]	no activity	53 nM	90 nM	32 nM	63 nM	75 nM	49 nM	80 nM	80 nM	60 nM	70 nM	80 nM	80 nM	60 nM	25 nM	90 nM	34 nM	36 nM	73 nM	42 nM	GI50 [16]: 70 nM
C/C=C1\NC(=O)c2ncc(SC)c(n2)CNC(=O)C[C@@H](/C=C/CCSC(C)=O)OC(=O)[C@H](C)NC1=O [Compound 219]	no activity	84 nM		75 nM	63 nM	49 nM	33 nM								34 nM		39 nM	42 nM	39 nM	82 nM	GI50 ([2]; MOLT-4 cells): 80 nM; GI50 ([7]; A549 cells): 30 nM; GI50 ([8]; BGC-823 cells): 50 nM; GI50 ([9]; Hela cells): 90 nM; GI50 ([10]; DU145 cells): 50 nM; GI50 ([11]; PANC-1 cells): 80 nM; GI50 ([12]; U937 cells): 70 nM; GI50 ([13]; lncap cells): 60 nM; GI50 ([15]; HT1080 cells): 70 nM; GI50 ([16]; MCF-7 cells): 60 nM
C/C=C1\NC(=O)c2ccc(F)c(n2)CNC(=O)C[C@@H](/C=C/CCS)OC(=O)[C@H](C)NC1=O [Compound 114]	no activity	38 nM	100 nM	11 nM	43 nM	54 nM	32 nM	30 nM	60 nM	70 nM	60 nM	60 nM	30 nM	70 nM	22 nM	100 nM	28 nM	99 nM	71 nM	42 nM	GI50 [16]: 60 nM
C/C=C1\NC(=O)c2nc(ccc2F)CNC(=O)C[C@@H](/C=C/CCS)OC(=O)[C@H](Cc2ccc(O)cc2)NC1=O [Compound 128]	no activity	73 nM	20 nM	35 nM	23 nM	49 nM	23 nM	30 nM	70 nM	40 nM	50 nM	130 nM	50 nM	100 nM	55 nM	70 nM	53 nM	41 nM	39 nM	53 nM	GI50 [16]: 50 nM
